Data published in patent publication US20100234238A1, “METHOD FOR PROFILING KINASE INHIBITORS” (Janssen Pharmaceutica N V, priority 2006, published 2010).
pIC50: −log10 of the molar value.

Key:
[1] = tested on: tyrosine kinase activity in cell line lysates; experiment: Peptide array profiling of 9 cell line lysates in the presence of MTKI or Tarceva; type: biochemical; conditions: 5 μM
Protocol: To test whether other EGFR inhibitors, related to MTKI, such as Tarceva (erlotinib; OSI pharmaceuticals), are also amenable to this response prediction methodology, 9 cell lines were profiled in the presence of MTKI, or Tarceva (5 μM in both cases). […] The value of the previously derived MTKI prediction peptides is illustrated in Tables 6A to C. Based on these peptides also response to Tarceva can be predicted with identical accuracy as for MTKI (and with the same false predictions, in casu H2009 and MOLT4).

[2] = tested on: xenograft tumors; experiment: Response of subcutaneous xenograft tumors to MTKI in vivo; set-up: species or system nude immuno-compromised mice; key: R: A responder is predicted when minimally 4 peptides have a ratio <0.8; NR = Non-Responder to MTKI
Protocol: (§1) To explore whether a similar approach allows for the classification of responder and non-responder tumors, the same strategy as above was applied to 12 different xenograft tumors, which were subcutaneously grown in nude immuno-compromised mice from human cancer cell lines. […] Lysates were made from homogenized frozen tumor blocks and analyzed in the absence or presence of 5 μM MTKI, as before.

[3] = tested on: 27 cell lines, representing diverse cancer cell types; experiment: Inhibition of proliferation of cell lines in vitro (response status); type: cell-based; conditions: response to MTKI
Protocol: It was tested whether the Pamchip peptide arrays are a useful tool to predict the response of a cell line to the multi-targeted kinase inhibitor, MTKI. MTKI inhibits the proliferation of a range of cell lines in vitro with widely varying IC50's. The lysates prepared from these 27 cell lines, representing diverse cancer cell types, were profiled on the peptide arrays in the absence or presence of 5 μM MTKI, in 6 replicates for each condition. In this panel, 13 cell lines were defined as responder cell lines (IC50<3 μM; cell lines are ordered according to increasing IC50 in Example 1, whereas 14 cell lines are classified as ‘non-responder’ cell lines (IC50>10 μM). Intermediary cell lines and cell lines with highly variable IC50 measurements were omitted from the analysis. The experiment included the highly responsive H3255 lung cancer cell line, which overexpresses mutant EGFR L858R. This mutant variant is highly responsive to MTKI, which is an ATP-competitive compound that binds to the active conformation of EGFR (similar to erlotinib and gefitinib). Accordingly, the most profound changes induced by MTKI in lysate kinase activity can be observed for this highly responsive cell line. To identify those peptides for which the inhibition of phosphorylation by MTKI correlates well with the response status of the cell line from which the lysate was prepared, a statistical mixed-model was set up to identify those peptides that are most likely to change after MTKI treatment in responder cell lysates compared to non-responder lysates, taken into account the inter-replicate variability (see the material and methods section for a more detailed description of the statistical test). […] To illustrate that the inhibition of the phosphorylation of these peptides in a given lysate does indeed correlate with the response of the corresponding cell line to MTKI, the following cut-off was chosen to classify responders and non-responders: minimally 4 peptides out of the 16 peptide list should be inhibited with a ratio of less than 0.8 (more than 20% inhibition) to classify as a responder. Applying this rule to all 27 cell lines indicates an overall classification accuracy of 82% (with 78% sensitivity, and 86% specificity). […] Note that the use of these […] peptides as a classification tool can be optimized according to the required sensitivity and specificity.

[4] = tested on: xenograft tumors; experiment: Response of subcutaneous xenograft tumors to MTKI in vivo; set-up: species or system nude immuno-compromised mice; conditions: for response status: response to MTKI in vivo
Protocol: as §1

pIC50 ([3]; BT474OD cell line): > 5.52 | pIC50 ([3]; COLO 699, Colo699 cell line): > 5.52 | pIC50 ([3]; HEK239, HEK239 cell line): < 5.00 | pIC50 ([3]; HT1373 cell line): < 5.00 | pIC50 ([3]; Homo sapiens, A-431, A431 cell line): > 5.52 | pIC50 ([3]; Homo sapiens, DU-145, DU145 cell line): > 5.52 | pIC50 ([3]; Homo sapiens, GTL 16, GTL16 cell line): < 5.00 | pIC50 ([3]; Homo sapiens, MCF7, MCF7 cell line): < 5.00 | pIC50 ([3]; Homo sapiens, MDA-MB-435S, MDAMB435s cell line): < 5.00 | pIC50 ([3]; Homo sapiens, MKN-45, MKN45 cell line): < 5.00 | pIC50 ([3]; Homo sapiens, MOLT-4, MOLT4 cell line): < 5.00 | pIC50 ([3]; Homo sapiens, NCI-H23, H23 cell line): < 5.00 | pIC50 ([3]; Homo sapiens, NCI-H1650, H1650 cell line): < 5.00 | pIC50 ([3]; Homo sapiens, NCI-H2009, H2009 cell line): > 5.52 | pIC50 ([3]; Homo sapiens, NCI-H2122, H2122 cell line): > 5.52 | pIC50 ([3]; Homo sapiens, NCI-H3255, H3255 cell line): > 5.52 | pIC50 ([3]; Homo sapiens, NCI-N87, NCI-N87 cell line): > 5.52 | pIC50 ([3]; Homo sapiens, SH-SY5Y, SHSY5Y cell line): < 5.00 | pIC50 ([3]; Homo sapiens, SK-BR-3, SKBR3 cell line): > 5.52 | pIC50 ([3]; Homo sapiens, SNU-5, SNU5 cell line): < 5.00 | pIC50 ([3]; Homo sapiens, U-118-MG, U118MG cell line): < 5.00 | pIC50 ([3]; MDA231PAR cell line): < 5.00 | pIC50 ([3]; NCI-H322, H322 cell line): > 5.52 | pIC50 ([3]; RSJSA1 cell line): < 5.00 | pIC50 ([3]; SNU-484, SNU484 cell line): > 5.52 | pIC50 ([3]; SUM149, SUM149 cell line): > 5.52 | pIC50 ([3]; SUM159, SUM159 cell line): > 5.52
Structure (SMILES): COc1cc2ncnc3c2cc1OCCCCCN(C)Cc1ccc(Br)cc1N3 [MTKI, 4,6-ethanediylidenepyrimido[4,5-b][6,1,12]benzoxadiazacyclopentadecine, 17-bromo-8,9,10,11,12,13,14,19-octahydro-20-methoxy-13-methyl-]
potency in lysate inhibition profile compared to Tarceva ([1]; H3255 lysate): slightly more potent | potency in lysate inhibition profile compared to Tarceva ([1]; N87 lysate): more potent | response status ([2]; H441 xenograft tumor): NR | response status ([2]; H460 xenograft tumor): NR | response status ([2]; H1703 xenograft tumor): NR | response status ([2]; HT29 xenograft tumor): NR | response status ([2]; PC3 xenograft tumor): NR | response status ([2]; SKOV3 xenograft tumor): NR | response status ([2]; U87MG xenograft tumor): NR | response status ([4]; A431 xenograft tumor): R | response status ([4]; BT474 xenograft tumor): R | responsiveness of xenograft tumors in vivo ([4]; DU145, SUM149 and BT474 tumors): potent inhibition of tumor growth | response status ([4]; DU145 xenograft tumor): R | response status ([4]; H322 xenograft tumor): R | responsiveness of xenograft tumors in vivo ([4]; H460 and H441, HT29, PC3, SKOV3, H1703 tumors): non-responsive | responsiveness of xenograft tumors in vivo ([4]; H3255, A431 and H322 tumors): abrupt tumor regression | response status ([4]; H3255 xenograft tumor): R | response status ([4]; SUM149 xenograft tumor): R
